Test results from patent US10206878B2, “Lyophilized formulation of TAT-NR2B9C with acetylation scavenger” (NoNO Inc., priority 2014, dated 2019).
No end group written: not given here.

Assay: Solubility study of TAT-NR2B9C, visual analysis
Assay type: physicochemical
Settings: pH 6.5, 35, 50, 75 and 100 mg/mL, t=0 and t=24 hours
Description: Due to the relatively low Tg temperatures that would likely require a longer lyophilization cycle to dry, we looked at a wider range of standard bulking agents and looked to reduce the fill volume into the container closure system so that there would be a reduced volume of liquid to lyophilize. […] Samples were visually analyzed at 35, 50, 75 and 100 mg/mL. All solutions were clear at t=0 and t=24 hours. […] A wide range of quantities may be required in a vial, but 270 mg would provide a […] dose for a 100 kg patient. Assuming the target reconstitution concentration for patient administration is still 20 mg/mL (but can be from 1 mg/ml to 100 mg/ml), then a 20-mL lyophilization vial containing 270 mg of TAT-NR2B9C can be used with a reconstitution volume of 13.5 mL. Therefore, optimal volumes of liquid for lyophilization of TAT-NR2B9C in the vial would be between 2.5 mL and 10 mL.

In the case of YGRKKRRQRRRKLSSIESDV [TAT-NR2B9C], the “solubility, visual” value (in Histidine+Trehalose) is reported as “clear” and the “solubility, visual” value (in Histidine) is reported as “clear”.
